Measurements as given in ChEMBL document CHEMBL5291721, “A preclinical secondary pharmacology resource illuminates target-adverse drug reaction associations of marketed drugs” (Nat Commun, 2023).

Tests used:
[1] = target: D(3) dopamine receptor (Homo sapiens, UniProt P35462)
[2] = target: Beta-2 adrenergic receptor (Homo sapiens, UniProt P07550)
[3] = target: 5-hydroxytryptamine receptor 2A (Homo sapiens, UniProt P28223); format: functional, cell-based
[4] = target: Mu-type opioid receptor (Homo sapiens, UniProt P35372); experiment: biochemical; format: functional
[5] = target: Gamma-aminobutyric acid receptor subunit alpha-1 (Rattus norvegicus, UniProt P62813); format: functional
[6] = target: Sodium-dependent serotonin transporter (Homo sapiens, UniProt P31645)
[7] = target: T1, Alpha-1A adrenergic receptor (Homo sapiens, UniProt P35348); format: functional, cell-based
T1 sequence (P35348 whole entry): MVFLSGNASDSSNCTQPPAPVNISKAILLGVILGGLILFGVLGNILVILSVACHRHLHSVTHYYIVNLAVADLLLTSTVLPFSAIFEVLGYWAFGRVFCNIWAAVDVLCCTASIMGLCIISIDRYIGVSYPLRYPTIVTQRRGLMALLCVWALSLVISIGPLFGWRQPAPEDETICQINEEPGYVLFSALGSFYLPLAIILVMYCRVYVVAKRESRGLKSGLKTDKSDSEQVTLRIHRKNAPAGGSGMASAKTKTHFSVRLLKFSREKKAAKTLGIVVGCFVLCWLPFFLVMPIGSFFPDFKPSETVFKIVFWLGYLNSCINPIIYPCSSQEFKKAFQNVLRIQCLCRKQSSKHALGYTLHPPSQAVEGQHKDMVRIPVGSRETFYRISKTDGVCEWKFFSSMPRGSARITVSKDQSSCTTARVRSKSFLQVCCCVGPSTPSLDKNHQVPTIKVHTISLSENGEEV

[8] = target: Beta-1 adrenergic receptor (Homo sapiens, UniProt P08588); format: functional
[9] = target: T2, Equilibrative nucleoside transporter 1 (Homo sapiens, UniProt Q99808)
T2 sequence (Q99808 whole entry): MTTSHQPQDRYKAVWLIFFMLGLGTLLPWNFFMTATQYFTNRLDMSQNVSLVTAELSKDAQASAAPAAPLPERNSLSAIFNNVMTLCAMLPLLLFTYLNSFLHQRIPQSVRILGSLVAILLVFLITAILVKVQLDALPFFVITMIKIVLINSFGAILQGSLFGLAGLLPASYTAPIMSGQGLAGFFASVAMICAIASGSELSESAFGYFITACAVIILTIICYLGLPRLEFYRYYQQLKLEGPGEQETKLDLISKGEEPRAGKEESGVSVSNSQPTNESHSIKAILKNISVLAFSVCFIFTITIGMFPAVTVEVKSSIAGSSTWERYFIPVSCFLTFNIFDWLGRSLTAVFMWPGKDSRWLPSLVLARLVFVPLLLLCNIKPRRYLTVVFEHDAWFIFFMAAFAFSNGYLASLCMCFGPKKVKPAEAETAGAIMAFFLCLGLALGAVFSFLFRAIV

[10] = target: Melanocortin receptor 3 (Homo sapiens, UniProt P41968)
[11] = target: Muscarinic acetylcholine receptor M3 (Homo sapiens, UniProt P20309)
[12] = target: T3, Cholecystokinin receptor type A (Homo sapiens, UniProt P32238)
T3 sequence (P32238 whole entry): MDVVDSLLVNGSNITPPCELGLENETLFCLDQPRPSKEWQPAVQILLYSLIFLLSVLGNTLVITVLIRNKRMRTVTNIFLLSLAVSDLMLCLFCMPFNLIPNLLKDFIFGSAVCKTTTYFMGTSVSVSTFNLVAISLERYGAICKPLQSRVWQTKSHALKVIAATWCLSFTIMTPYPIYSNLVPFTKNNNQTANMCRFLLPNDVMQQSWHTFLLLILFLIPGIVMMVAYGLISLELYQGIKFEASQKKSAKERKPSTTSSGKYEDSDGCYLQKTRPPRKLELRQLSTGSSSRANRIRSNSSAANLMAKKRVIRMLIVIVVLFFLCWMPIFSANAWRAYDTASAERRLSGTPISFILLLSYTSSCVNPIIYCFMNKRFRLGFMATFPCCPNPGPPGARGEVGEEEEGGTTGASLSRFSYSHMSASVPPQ

[13] = target: Glutamate receptor ionotropic, NMDA 1 (Rattus norvegicus, UniProt P35439)
[14] = target: Voltage-gated inwardly rectifying potassium channel KCNH2 (Homo sapiens, UniProt Q12809); format: functional; details: read-out: AC50
[15] = target: T4, Muscarinic acetylcholine receptor M2 (Homo sapiens, UniProt P08172); format: functional, cell-based
T4 sequence (P08172 whole entry): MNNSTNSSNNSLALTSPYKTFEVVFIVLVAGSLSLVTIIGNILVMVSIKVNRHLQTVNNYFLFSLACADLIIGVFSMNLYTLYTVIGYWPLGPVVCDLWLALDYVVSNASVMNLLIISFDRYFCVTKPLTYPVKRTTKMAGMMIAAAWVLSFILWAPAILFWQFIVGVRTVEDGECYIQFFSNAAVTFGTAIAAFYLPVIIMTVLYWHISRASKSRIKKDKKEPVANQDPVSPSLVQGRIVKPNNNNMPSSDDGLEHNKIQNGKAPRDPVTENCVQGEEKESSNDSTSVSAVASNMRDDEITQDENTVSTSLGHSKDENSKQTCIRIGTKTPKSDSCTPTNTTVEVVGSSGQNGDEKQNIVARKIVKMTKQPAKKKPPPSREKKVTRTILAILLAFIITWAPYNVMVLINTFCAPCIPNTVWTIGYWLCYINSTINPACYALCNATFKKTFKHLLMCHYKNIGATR
Also: assay procedure not described here.

Beta-1 adrenergic receptor, sequence (P08588 whole entry): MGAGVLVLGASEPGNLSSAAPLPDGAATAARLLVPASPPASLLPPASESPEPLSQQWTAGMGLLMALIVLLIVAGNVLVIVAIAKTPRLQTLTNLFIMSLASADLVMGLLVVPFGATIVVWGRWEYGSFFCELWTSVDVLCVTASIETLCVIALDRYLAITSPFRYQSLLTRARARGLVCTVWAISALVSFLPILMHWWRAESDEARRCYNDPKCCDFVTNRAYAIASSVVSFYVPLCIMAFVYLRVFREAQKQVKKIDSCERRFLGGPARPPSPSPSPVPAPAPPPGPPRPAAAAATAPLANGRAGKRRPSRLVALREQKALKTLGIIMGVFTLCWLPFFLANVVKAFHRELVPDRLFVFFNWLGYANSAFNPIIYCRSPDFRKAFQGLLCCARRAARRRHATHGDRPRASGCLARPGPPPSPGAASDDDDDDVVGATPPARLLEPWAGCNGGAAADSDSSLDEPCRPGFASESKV
Beta-2 adrenergic receptor, sequence (P07550 whole entry): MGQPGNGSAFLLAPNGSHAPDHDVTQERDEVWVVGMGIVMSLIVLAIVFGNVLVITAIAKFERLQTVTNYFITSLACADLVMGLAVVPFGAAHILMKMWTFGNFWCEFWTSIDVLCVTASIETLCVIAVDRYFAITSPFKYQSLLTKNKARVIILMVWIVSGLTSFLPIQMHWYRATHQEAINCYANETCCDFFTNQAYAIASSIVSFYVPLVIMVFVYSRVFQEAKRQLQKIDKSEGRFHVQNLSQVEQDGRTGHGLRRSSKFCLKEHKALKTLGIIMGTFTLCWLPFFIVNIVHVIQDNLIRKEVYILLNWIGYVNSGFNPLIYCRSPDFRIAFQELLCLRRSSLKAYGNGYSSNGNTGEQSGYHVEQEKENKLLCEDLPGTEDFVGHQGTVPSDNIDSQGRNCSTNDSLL
Voltage-gated inwardly rectifying potassium channel KCNH2, sequence (Q12809 whole entry): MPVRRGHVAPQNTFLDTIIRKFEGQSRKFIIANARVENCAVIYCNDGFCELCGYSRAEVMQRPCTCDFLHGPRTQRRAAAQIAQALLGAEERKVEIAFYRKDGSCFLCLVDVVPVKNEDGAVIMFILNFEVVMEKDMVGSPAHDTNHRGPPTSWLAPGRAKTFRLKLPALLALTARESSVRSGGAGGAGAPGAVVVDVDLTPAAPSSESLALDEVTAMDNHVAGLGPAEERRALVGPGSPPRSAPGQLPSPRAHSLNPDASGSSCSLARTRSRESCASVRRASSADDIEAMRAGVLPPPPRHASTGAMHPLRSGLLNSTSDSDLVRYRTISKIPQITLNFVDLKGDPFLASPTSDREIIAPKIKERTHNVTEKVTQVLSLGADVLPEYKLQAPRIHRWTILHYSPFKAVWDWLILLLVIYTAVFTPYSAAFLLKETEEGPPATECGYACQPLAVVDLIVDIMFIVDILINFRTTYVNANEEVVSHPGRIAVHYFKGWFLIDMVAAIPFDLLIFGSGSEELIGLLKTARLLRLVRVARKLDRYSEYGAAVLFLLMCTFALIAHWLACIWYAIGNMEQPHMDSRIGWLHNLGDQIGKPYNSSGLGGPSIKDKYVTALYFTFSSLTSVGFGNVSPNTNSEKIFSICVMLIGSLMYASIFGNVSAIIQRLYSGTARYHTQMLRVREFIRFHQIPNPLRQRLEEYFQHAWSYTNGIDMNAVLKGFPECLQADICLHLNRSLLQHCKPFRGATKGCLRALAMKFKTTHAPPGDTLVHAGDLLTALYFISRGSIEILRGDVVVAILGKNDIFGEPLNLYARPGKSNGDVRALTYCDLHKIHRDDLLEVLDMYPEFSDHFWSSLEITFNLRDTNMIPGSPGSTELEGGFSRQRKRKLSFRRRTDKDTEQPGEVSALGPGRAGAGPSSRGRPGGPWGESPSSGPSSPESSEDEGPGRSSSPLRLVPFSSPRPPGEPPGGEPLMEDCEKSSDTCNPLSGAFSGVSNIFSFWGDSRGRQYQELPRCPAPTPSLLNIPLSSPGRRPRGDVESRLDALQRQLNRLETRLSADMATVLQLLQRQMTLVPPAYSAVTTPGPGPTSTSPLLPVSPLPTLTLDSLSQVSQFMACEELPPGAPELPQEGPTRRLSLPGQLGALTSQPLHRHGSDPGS
Melanocortin receptor 3, sequence (P41968 whole entry): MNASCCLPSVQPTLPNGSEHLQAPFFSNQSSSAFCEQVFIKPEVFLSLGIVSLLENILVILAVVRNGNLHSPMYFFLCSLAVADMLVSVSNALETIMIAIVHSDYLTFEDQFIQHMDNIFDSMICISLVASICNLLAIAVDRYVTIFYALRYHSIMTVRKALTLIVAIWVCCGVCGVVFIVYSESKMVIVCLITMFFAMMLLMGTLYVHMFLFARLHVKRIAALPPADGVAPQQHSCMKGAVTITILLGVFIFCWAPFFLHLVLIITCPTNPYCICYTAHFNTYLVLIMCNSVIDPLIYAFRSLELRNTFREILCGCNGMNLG
D(3) dopamine receptor, sequence (P35462 whole entry): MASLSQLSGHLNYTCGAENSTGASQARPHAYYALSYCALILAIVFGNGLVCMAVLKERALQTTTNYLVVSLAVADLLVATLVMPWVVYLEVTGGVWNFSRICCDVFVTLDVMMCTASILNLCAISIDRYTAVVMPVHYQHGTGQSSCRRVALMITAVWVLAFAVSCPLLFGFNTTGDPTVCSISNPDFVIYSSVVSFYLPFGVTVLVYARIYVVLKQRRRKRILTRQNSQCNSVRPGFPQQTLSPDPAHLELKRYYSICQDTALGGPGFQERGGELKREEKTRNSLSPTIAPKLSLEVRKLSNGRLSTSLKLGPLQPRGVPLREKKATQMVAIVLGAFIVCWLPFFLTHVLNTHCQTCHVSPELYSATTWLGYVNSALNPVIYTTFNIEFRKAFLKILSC
Gamma-aminobutyric acid receptor subunit alpha-1, sequence (P62813 whole entry): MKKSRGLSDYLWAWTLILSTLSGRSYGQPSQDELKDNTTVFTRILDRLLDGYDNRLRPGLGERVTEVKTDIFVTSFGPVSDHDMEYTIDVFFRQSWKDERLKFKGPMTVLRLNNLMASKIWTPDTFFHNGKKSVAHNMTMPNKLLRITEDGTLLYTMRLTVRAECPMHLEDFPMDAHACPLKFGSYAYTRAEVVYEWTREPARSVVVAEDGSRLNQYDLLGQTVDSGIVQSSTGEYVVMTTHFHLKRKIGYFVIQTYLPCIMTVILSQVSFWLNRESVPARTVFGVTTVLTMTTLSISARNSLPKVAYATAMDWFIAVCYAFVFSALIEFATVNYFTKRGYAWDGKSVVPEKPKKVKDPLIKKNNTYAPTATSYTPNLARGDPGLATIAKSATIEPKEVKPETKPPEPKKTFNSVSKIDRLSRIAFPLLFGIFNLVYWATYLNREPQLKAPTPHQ
5-hydroxytryptamine receptor 2A, sequence (P28223 whole entry): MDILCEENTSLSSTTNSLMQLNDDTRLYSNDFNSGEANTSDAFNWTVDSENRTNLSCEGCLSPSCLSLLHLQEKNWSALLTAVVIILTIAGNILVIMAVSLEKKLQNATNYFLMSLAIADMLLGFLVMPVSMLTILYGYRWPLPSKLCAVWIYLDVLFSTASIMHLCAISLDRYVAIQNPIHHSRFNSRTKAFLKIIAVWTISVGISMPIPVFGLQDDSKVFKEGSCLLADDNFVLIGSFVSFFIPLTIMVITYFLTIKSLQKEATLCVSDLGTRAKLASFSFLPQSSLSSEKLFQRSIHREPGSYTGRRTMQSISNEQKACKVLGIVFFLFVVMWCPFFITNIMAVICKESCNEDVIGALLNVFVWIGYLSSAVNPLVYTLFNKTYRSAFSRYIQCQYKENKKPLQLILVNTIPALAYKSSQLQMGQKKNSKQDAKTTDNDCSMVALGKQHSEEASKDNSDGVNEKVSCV
Sodium-dependent serotonin transporter, sequence (P31645 whole entry): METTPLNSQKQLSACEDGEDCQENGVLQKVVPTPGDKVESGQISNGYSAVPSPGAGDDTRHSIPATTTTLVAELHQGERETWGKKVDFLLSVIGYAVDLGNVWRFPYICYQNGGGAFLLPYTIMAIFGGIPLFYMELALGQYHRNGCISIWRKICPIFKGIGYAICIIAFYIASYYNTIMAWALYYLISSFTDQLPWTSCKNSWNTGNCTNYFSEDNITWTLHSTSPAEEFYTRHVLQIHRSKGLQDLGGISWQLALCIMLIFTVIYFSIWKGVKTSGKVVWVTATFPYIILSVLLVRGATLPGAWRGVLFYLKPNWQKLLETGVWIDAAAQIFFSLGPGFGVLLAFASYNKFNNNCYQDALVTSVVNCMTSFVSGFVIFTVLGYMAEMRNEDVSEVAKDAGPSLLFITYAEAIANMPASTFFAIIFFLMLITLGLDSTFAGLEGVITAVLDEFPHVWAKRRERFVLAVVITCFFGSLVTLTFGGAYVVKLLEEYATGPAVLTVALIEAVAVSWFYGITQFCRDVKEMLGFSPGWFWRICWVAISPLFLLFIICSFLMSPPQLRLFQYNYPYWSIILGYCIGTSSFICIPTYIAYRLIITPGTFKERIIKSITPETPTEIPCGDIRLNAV
Muscarinic acetylcholine receptor M3, sequence (P20309 whole entry): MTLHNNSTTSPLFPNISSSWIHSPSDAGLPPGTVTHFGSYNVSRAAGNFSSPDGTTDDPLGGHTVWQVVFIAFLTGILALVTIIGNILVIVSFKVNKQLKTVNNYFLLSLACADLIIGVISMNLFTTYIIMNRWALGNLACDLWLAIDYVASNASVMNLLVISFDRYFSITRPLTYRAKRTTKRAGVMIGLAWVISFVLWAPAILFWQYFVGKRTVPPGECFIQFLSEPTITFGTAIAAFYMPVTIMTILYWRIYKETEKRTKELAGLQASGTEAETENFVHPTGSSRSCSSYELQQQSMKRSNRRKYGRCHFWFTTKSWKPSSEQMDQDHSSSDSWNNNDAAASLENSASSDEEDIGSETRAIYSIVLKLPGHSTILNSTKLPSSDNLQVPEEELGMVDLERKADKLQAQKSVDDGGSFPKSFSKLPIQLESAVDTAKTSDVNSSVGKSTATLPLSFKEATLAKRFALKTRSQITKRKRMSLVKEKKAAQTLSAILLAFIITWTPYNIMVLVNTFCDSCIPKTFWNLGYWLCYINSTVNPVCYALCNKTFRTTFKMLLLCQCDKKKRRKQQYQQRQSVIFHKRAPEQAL

| SMILES | AC50 [1] [µM] | AC50 [2] [µM] | AC50 [3] [µM] | AC50 [4] [µM] | AC50 [5] [µM] | AC50 [6] [µM] | AC50 [7] [µM] | AC50 [8] [µM] | AC50 [9] [µM] | AC50 [10] [µM] | AC50 [11] [µM] | AC50 [12] [µM] | AC50 [13] [µM] | AC50 [14] [µM] | AC50 [15] [µM] |
| --- | --- | --- | --- | --- | --- | --- | --- | --- | --- | --- | --- | --- | --- | --- | --- |
| O=C(C[S+]([O-])C(c1ccccc1)c1ccccc1)NO (stereo not drawn) | > 30 | > 30 | > 30 | > 30 | > 30 | > 30 | > 30 | > 30 | > 30 | > 30 | > 30 | > 30 | > 30 | > 30 | > 30 |
| Nc1ncnc2c1ncn2[C@@H]1O[C@H](COP(=O)(O)O)[C@@H](O)[C@H]1O [ADENOSINE PHOSPHATE] | > 30 | > 30 | > 30 | > 30 | > 30 | > 30 | > 30 | > 30 |  | > 30 | > 30 | > 30 | > 30 | 15 | > 30 |
| CCC(C(=O)O)c1ccc(CC(C)C)cc1 (stereo not drawn) [BUTIBUFEN] | > 30 | > 30 | > 30 | > 30 | > 30 | > 30 | > 30 | > 30 | > 30 | > 30 | > 30 | > 30 | > 30 | > 30 | > 30 |
| CCOC(=O)[C@H](CCc1ccccc1)N[C@H]1CCCN2CCC[C@@H](C(=O)O)N2C1=O [CILAZAPRIL] | > 30 | > 30 | > 30 | > 30 | > 30 | > 30 | > 30 | > 30 | > 30 | > 30 | > 30 | > 30 | > 30 | > 30 | > 30 |
| CCOc1cc(N)c([N+](=O)[O-])cc1C(=O)NC1CCN(CC2CC=CCC2)CC1 (stereo not drawn) [CINITAPRIDE] | 0.038 | 16 | 0.07 | > 30 | 14 | 14 | > 30 | > 30 | > 30 | > 30 | 13 | > 30 | > 30 | 0.31 | > 30 |
| CCCCCCCCCCCC[N+](C)(C)CCOc1ccccc1 [DOMIPHEN] | 2.1 | 15 | 0.94 | > 30 | > 30 | 1.7 | > 30 | 3.1 | > 30 |  | 8.4 | > 30 | > 30 | 1.7 | 14 |
| CCCCCN(C)CCC(O)(P(=O)(O)O)P(=O)(O)O [IBANDRONIC ACID] | > 30 | > 30 | > 30 | 8.5 | > 30 | > 30 | > 30 | > 30 | > 30 | > 30 | > 30 | > 30 | > 30 | > 30 | > 30 |
